We go through 10 compounds from PubChem BioAssay (NCI).

What all share (assay): NCI tumour cell line growth inhibition, 48 h
In experiment [1] the test system is NCI-H23 lung.
Experiment [2] has as its system EKVX NSCLC.
Experiment [3] deals with SNB-75 CNS.
Experiment [4] deals with CCRF-CEM leukemia.
The test system of experiment [5] is UO-31 renal.
The subject of experiment [6] is M14 melanoma.
Experiment [7] relates to NCI-H226 lung.
The subject of experiment [8] is OVCAR-5 ovarian.
Experiment [9] deals with OVCAR-4 ovarian.
For experiment [10], the system named is U251 CNS.

SMILES strings stand for the structures.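 How tested: cells in 96-well plates exposed to compound for 48 hours at five concentrations. At the GI50, growth is halved. TGI marks complete inhibition of growth.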

With `Cc1cccc(N=C2NC(=O)C(CC(=O)Nc3cccc(C)c3C)S2)c1` (stereo not given), the TGI in experiment [1], in experiment [2], in [3], in experiment [4], in experiment [5] and in experiment [6] was more than 100 µM in each case. The TGI in [7], in experiment [8], in experiment [9] and in experiment [10] was more than 100 µM each time.
For `NC(=S)N/N=C/c1cc(-c2cccc(N)c2)ccn1`, the GI50 was 1.91 µM in [1]; 2.6 µM in [2]; 2.15 µM in experiment [3]; 0.674 µM in [4]; 0.907 µM in experiment [5]; 1.49 µM in experiment [6]. The GI50 was 1.73 µM in [7], 3.96 µM in experiment [8], 2.66 µM in experiment [9] and 0.783 µM in experiment [10]. In addition, the TGI in experiment [1] was more than 100 µM; in experiment [2], more than 100 µM; in [3], more than 100 µM; in experiment [4], more than 36.1 µM; in [5], 8.69 µM; in experiment [6], 4.21 µM. Also, the TGI in [7] was 8.18 µM; in experiment [8], more than 100 µM; in experiment [9], more than 100 µM; in experiment [10] it was more than 38.8 µM.
As to `COC(=O)c1cc(/C=C/c2ccc(S(N)(=O)=O)cc2)ccc1O`, the GI50 in [1] was more than 100 µM; in experiment [2] it was 29.3 µM; in experiment [3] it was 57 µM; in experiment [4], 41 µM; in [5], 29.1 µM; in [6] it was 35.3 µM. For the same compound, the GI50 in experiment [7] is 21.4 µM; in experiment [8], 59.2 µM; in experiment [9], 72.9 µM; in [10], 18.8 µM. Besides, the TGI in [1], in experiment [2], in experiment [3], in [4], in experiment [5] and in experiment [6] was more than 100 µM each time. The TGI was 52.9 µM in experiment [7], more than 100 µM in experiment [8], more than 100 µM in experiment [9] and more than 100 µM in experiment [10].
Consider `Nc1ccccc1SC1CC(=O)N(c2ccc(Cl)c(Cl)c2)C1=O` (stereo not given), for which the GI50 in experiment [1] was 23.8 µM; in experiment [2], 17.4 µM; in experiment [3] it was 13.3 µM; in experiment [4], 40.6 µM; in experiment [5] it was 11.7 µM; in experiment [6] it was 40.4 µM. The GI50 in [7] is 14.6 µM; in experiment [8], more than 100 µM; in experiment [9], 19.2 µM; in [10], 21.1 µM. In addition, the TGI is more than 100 µM in experiment [1]; more than 100 µM in experiment [2]; 34.4 µM in experiment [3]; more than 100 µM in experiment [4]; 45 µM in experiment [5]; more than 100 µM in experiment [6]. The TGI in [7] is 64.4 µM; in experiment [8], more than 100 µM; in experiment [9] it was more than 100 µM; in experiment [10], more than 100 µM.
On to `COc1ccc(/C=C(/c2ccccc2)[N+](=O)[O-])cc1`, for which the GI50 is 1.74 µM in experiment [1]; 1.73 µM in [2]; 1.16 µM in experiment [3]; 0.415 µM in experiment [4]; 1.13 µM in [5]; 1.42 µM in experiment [6]. Also, the GI50 in [7] was 1.95 µM; in [8], 1.62 µM; in experiment [9] it was 1.69 µM; in experiment [10], 1.61 µM. The TGI came out at 3.63 µM in [1]; 3.52 µM in experiment [2]; 2.44 µM in experiment [3]; 3.32 µM in [4]; 2.35 µM in [5]; 2.85 µM in experiment [6]. The TGI was 4.43 µM in [7], 3.26 µM in experiment [8], 3.15 µM in [9] and 3.21 µM in experiment [10].
As to `COc1cc(C(=O)C/C(CCC(=O)Nc2ccc(Cl)cc2Cl)=N/NC(=O)C(=O)NN)ccc1O`, the TGI in [1], in experiment [2], in experiment [3], in experiment [4], in [5] and in experiment [6] was more than 100 µM in each case. The TGI in experiment [7], in experiment [8], in experiment [9] and in [10] was more than 100 µM each time.
For `OCCNCCOc1ccc(/C(=C(/Cl)c2ccccc2)c2ccccc2)cc1`, the TGI stood at 28.4 µM in experiment [1]; 28.6 µM in [2]; 8.46 µM in experiment [3]; 9.87 µM in experiment [4]; 22.2 µM in [5]; 3.59 µM in experiment [6]. For the same compound, the TGI in [7] was 45 µM; in [8] it was 28.3 µM; in [9] it was 31.5 µM; in experiment [10], 21.1 µM.
Take `O/C(=C\c1nc2ccccc2nc1NC12CC3CC(CC(C3)C1)C2)c1ccc(Br)cc1`: the TGI in experiment [1], in [2], in experiment [3], in experiment [4], in [5] and in [6] was more than 10 µM throughout. The TGI in [7], in [8], in experiment [9] and in experiment [10] was more than 10 µM throughout.
Regarding `Nc1ccc2[nH]cc(CCC(=O)O)c2c1`, the TGI was more than 100 µM in experiment [1]; more than 100 µM in experiment [2]; more than 100 µM in experiment [3]; 32.9 µM in [4]; more than 100 µM in [5]; more than 100 µM in experiment [6]. The TGI in experiment [7], in experiment [8], in experiment [9] and in [10] was more than 100 µM each time.
As to `CCOC(=O)/C(=C/c1cccc(C#N)c1)N(CC)CC`, the TGI in [1], in [2], in [3], in experiment [4], in experiment [5] and in experiment [6] was more than 100 µM each time. For the same compound, the TGI in [7], in experiment [8], in experiment [9] and in experiment [10] was more than 100 µM each time.
